Laboratory results taken from ChEMBL document CHEMBL5678816, “A Next-Generation TRK Kinase Inhibitor Overcomes Acquired Resistance to Prior TRK Kinase Inhibition in Patients with TRK Fusion-Positive Solid Tumors” (Cancer Discov, 2017).
Active and inactive are the calls of the source. No cut-off for these calls is given here.

Columns and labels:
[1] = Toxicity in nu/nu NCr mouse xenografted with human KM12 cells harboring TPM3-TRKA fusion protein assessed as body weight loss at 30 to 300 mg/kg, po administered twice daily for 11 days relative to control; format: organism-based; conditions: in vivo, 264 h, dose 30-300 mg/kg, time 11 day
MCF7 = test: Inhibition of cell proliferation in human MCF7 cells upto 10 umol/L incubated for 72 hrs by DAPI staining based analysis; format: functional; conditions: dose <= 10.0 µmol/L
5637 = test: Inhibition of cell proliferation in human 5637 cells upto 10 umol/L incubated for 72 hrs by DAPI staining based analysis; format: functional; conditions: dose <= 10.0 µmol/L
MDA-MB-231 = test: Inhibition of cell proliferation in human MDA-MB-231 cells upto 10 umol/L incubated for 72 hrs by DAPI staining based analysis; format: functional; conditions: dose <= 10.0 µmol/L
MDA-MB-453 = test: Inhibition of cell proliferation in human MDA-MB-453 cells upto 10 umol/L incubated for 72 hrs by DAPI staining based analysis; format: functional; conditions: dose <= 10.0 µmol/L
MDA-MB-468 = test: Inhibition of cell proliferation in human MDA-MB-468 cells upto 10 umol/L incubated for 72 hrs by DAPI staining based analysis; format: functional; conditions: dose <= 10.0 µmol/L
FaDu = test: Inhibition of cell proliferation in human FaDu cells upto 10 umol/L incubated for 72 hrs by DAPI staining based analysis; format: functional; conditions: dose <= 10.0 µmol/L
Rec1 = test: Inhibition of cell proliferation in human REC1 cells upto 10 umol/L incubated for 72 hrs by DAPI staining based analysis; format: functional; conditions: dose <= 10.0 µmol/L
J82 = test: Inhibition of cell proliferation in human J82 cells upto 10 umol/L incubated for 72 hrs by DAPI staining based analysis; format: functional; conditions: dose <= 10.0 µmol/L
CAMA-1 = test: Inhibition of cell proliferation in human CAMA-1 cells upto 10 umol/L incubated for 72 hrs by DAPI staining based analysis; format: functional; conditions: dose <= 10.0 µmol/L
[2] = target: Tyrosine-protein kinase TXK (Homo sapiens) (UniProt P42681); test: Inhibition of Txk (unknown origin) at 1 uM in presence of ATP relative to control
[3] = AUC in pediatric patient with recurrent ETV6-NTRK3-rearranged infantile fibrosarcoma at 60 mg administered twice a day as liquid formulation for 8 day by LC-MS/MS analysis; format: ADME; conditions: human, in vivo
[4] = target: Tyrosine-protein kinase Fer (Homo sapiens) (UniProt P16591); test: Inhibition of Fer (unknown origin) at 1 uM in presence of ATP relative to control; values are per cent of control
[5] = target: Tyrosine-protein kinase Fes/Fps (Homo sapiens) (UniProt P07332); test: Inhibition of Fes (unknown origin) at 1 uM in presence of ATP relative to control; values are per cent of control
[6] = target: Tyrosine-protein kinase Fyn (Homo sapiens) (UniProt P06241); test: Inhibition of Fyn (unknown origin) at 1 uM in presence of ATP relative to control; values are per cent of control
[7] = target: cAMP-dependent protein kinase catalytic subunit PRKX (Homo sapiens) (UniProt P51817); test: Inhibition of PrKX (unknown origin) at 1 uM in presence of ATP relative to control; values are per cent of control
[8] = target: Serine/threonine-protein kinase VRK2 (Homo sapiens) (UniProt Q86Y07); test: Inhibition of VRK2 (unknown origin) at 1 uM in presence of ATP relative to control; values are per cent of control
[9] = target: Serine/threonine-protein kinase PLK2 (Homo sapiens) (UniProt Q9NYY3); test: Inhibition of Plk2 (unknown origin) at 1 uM in presence of ATP relative to control; values are per cent of control
[10] = target: Dual specificity mitogen-activated protein kinase kinase 7 (Homo sapiens) (UniProt O14733); test: Inhibition of MKK7 (unknown origin) at 1 uM in presence of ATP relative to control; values are per cent of control
[11] = target: Serine/threonine-protein kinase PAK 5 (Homo sapiens) (UniProt Q9P286); test: Inhibition of PAK5 (unknown origin) at 1 uM in presence of ATP relative to control; values are per cent of control
[12] = target: Tyrosine-protein kinase JAK3 (Homo sapiens) (UniProt P52333); test: Inhibition of JAK3 (unknown origin) at 1 uM in presence of ATP relative to control; values are per cent of control
[13] = target: BDNF/NT-3 growth factors receptor (Homo sapiens) (UniProt Q16620); test: Inhibition of TrkB (unknown origin) at 1 uM in presence of ATP relative to control; values are per cent of control
[14] = target: Ephrin type-A receptor 4 (Homo sapiens) (UniProt P54764); test: Inhibition of EphA4 (unknown origin) at 1 uM in presence of ATP relative to control; values are per cent of control
[15] = target: Fibroblast growth factor receptor 4 (Homo sapiens) (UniProt P22455); test: Inhibition of FGFR4 (unknown origin) at 1 uM in presence of ATP relative to control; values are per cent of control
[16] = target: LIM domain kinase 1 (Homo sapiens) (UniProt P53667); test: Inhibition of LIMK1 (unknown origin) at 1 uM in presence of ATP relative to control; values are per cent of control
[17] = target: Protein kinase C beta type (Homo sapiens) (UniProt P05771); test: Inhibition of PKCbetal (unknown origin) at 1 uM in presence of ATP relative to control; values are per cent of control
[18] = target: Casein kinase I isoform delta (Homo sapiens) (UniProt P48730); test: Inhibition of CK1delta (unknown origin) at 1 uM in presence of ATP relative to control; values are per cent of control
[19] = target: Mitogen-activated protein kinase 12 (Homo sapiens) (UniProt P53778); test: Inhibition of p38gamma (unknown origin) at 1 uM in presence of ATP relative to control; values are per cent of control
[20] = target: Inhibitor of nuclear factor kappa-B kinase subunit alpha (Homo sapiens) (UniProt O15111); test: Inhibition of IKKalpha (unknown origin) at 1 uM in presence of ATP relative to control; values are per cent of control
[21] = target: Platelet-derived growth factor receptor beta (Homo sapiens) (UniProt P09619); test: Inhibition of PDGFRbeta (unknown origin) at 1 uM in presence of ATP relative to control; values are per cent of control

Casein kinase I isoform delta (Homo sapiens), sequence (P48730 whole entry, looked up, canonical isoform): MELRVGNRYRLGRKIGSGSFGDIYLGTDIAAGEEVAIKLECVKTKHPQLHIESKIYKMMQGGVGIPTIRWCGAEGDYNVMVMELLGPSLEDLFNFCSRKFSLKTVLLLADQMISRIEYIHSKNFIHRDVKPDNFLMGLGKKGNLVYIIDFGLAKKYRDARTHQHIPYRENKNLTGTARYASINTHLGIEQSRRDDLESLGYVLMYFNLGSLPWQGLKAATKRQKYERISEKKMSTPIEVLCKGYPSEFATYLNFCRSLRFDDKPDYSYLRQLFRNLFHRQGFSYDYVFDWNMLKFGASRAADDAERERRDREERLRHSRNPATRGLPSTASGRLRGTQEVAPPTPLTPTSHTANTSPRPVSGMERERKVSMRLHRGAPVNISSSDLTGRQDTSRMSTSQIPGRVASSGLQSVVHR
BDNF/NT-3 growth factors receptor (Homo sapiens), sequence (Q16620 32-822 limits assumed): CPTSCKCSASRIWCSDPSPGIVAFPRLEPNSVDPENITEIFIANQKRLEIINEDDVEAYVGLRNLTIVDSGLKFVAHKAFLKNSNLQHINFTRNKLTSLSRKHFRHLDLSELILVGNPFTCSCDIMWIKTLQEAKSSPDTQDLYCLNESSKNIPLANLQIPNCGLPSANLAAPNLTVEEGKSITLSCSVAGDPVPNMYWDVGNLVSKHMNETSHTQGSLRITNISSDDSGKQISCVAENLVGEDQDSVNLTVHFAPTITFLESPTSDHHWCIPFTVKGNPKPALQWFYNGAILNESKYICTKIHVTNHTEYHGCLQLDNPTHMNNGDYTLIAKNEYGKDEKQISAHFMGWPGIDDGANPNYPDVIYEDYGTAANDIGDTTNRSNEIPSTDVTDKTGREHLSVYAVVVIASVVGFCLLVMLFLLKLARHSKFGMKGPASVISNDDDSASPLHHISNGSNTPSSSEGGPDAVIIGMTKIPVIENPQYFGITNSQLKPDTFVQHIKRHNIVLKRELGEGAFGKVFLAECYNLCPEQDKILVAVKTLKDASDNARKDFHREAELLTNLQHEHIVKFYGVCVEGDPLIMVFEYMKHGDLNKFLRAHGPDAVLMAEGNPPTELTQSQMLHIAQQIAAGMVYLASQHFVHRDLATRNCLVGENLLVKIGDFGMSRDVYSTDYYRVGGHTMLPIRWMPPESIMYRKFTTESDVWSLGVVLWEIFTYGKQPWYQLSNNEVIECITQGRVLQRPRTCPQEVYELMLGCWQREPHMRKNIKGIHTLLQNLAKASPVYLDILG
Inhibitor of nuclear factor kappa-B kinase subunit alpha (Homo sapiens), sequence (O15111 whole entry): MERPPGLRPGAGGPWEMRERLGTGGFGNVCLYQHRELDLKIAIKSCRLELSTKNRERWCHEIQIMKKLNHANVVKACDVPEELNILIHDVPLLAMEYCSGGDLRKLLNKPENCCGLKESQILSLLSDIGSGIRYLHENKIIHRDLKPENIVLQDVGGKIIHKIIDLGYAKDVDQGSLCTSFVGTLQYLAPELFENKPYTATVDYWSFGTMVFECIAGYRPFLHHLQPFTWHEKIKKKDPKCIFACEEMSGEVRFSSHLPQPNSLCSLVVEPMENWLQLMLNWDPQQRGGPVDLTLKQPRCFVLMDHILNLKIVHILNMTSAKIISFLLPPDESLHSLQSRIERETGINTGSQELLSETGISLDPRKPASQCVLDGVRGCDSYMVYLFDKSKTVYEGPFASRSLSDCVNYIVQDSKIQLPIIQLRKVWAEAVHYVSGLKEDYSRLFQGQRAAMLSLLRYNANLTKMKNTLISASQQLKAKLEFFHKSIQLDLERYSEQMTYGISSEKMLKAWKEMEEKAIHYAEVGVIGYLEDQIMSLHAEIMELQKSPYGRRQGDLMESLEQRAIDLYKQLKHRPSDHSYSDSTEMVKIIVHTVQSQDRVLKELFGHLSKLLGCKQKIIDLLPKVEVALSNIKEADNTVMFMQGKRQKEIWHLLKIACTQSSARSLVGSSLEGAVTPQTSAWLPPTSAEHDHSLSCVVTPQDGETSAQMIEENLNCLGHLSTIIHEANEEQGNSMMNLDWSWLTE
Tyrosine-protein kinase Fyn (Homo sapiens), sequence (P06241 2-537 limits assumed): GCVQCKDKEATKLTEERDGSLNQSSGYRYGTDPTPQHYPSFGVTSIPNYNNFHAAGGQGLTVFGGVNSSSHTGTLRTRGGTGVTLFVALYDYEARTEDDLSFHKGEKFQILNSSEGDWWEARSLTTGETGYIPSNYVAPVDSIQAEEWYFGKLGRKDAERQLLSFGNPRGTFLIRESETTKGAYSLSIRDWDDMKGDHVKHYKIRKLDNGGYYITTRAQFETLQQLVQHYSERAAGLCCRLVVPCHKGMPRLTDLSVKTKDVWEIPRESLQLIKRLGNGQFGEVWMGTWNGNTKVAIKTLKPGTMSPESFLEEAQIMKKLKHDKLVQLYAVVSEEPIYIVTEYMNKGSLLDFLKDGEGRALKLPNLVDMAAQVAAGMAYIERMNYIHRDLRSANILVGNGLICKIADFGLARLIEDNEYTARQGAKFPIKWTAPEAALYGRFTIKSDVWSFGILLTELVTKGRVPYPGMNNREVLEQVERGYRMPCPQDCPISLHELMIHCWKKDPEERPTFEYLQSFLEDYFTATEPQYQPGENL
Mitogen-activated protein kinase 12 (Homo sapiens), sequence (P53778 whole entry): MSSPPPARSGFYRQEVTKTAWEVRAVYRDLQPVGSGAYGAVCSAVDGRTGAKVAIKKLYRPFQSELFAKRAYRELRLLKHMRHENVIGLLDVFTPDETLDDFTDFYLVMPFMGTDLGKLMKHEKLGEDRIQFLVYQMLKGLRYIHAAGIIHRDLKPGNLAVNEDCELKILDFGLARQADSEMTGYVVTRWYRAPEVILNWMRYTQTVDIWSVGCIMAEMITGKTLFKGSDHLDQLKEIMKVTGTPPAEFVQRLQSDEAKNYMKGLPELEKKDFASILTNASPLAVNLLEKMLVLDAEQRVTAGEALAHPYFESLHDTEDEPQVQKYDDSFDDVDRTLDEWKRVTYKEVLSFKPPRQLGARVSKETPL
Dual specificity mitogen-activated protein kinase kinase 7 (Homo sapiens), sequence (O14733 whole entry): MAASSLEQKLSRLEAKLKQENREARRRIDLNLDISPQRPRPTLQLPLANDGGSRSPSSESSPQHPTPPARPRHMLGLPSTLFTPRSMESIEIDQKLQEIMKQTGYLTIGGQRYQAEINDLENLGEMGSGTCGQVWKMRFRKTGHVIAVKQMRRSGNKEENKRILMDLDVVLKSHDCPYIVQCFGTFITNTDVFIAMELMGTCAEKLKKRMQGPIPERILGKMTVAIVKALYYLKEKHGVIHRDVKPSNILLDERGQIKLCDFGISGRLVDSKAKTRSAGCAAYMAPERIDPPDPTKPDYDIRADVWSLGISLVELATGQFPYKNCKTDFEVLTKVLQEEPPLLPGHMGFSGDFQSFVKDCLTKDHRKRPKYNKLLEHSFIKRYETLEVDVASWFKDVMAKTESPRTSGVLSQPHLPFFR
Ephrin type-A receptor 4 (Homo sapiens), sequence (P54764 whole entry): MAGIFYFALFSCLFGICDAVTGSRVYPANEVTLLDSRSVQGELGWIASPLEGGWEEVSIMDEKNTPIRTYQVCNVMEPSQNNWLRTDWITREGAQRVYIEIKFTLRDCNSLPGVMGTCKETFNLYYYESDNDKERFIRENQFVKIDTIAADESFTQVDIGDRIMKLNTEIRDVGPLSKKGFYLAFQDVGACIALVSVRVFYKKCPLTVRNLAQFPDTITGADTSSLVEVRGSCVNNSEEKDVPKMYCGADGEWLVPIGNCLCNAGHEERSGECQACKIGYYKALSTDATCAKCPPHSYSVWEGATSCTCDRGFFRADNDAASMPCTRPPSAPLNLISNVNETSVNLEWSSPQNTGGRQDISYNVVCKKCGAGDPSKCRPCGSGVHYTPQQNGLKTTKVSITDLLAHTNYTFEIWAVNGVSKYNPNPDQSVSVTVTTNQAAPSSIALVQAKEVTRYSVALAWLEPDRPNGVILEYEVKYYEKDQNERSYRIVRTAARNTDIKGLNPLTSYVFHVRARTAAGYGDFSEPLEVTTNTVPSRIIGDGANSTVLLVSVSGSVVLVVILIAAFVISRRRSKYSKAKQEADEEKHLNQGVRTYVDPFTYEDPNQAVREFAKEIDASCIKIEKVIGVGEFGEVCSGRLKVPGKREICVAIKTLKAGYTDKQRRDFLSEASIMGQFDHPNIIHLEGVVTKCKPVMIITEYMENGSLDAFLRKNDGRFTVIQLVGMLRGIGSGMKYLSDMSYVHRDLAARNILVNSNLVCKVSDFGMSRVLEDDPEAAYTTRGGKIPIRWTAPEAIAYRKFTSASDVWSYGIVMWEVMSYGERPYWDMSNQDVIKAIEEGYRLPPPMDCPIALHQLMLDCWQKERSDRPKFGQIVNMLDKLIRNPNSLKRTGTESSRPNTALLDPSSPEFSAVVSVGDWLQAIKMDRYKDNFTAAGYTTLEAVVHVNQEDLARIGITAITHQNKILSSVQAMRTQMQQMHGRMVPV
Protein kinase C beta type (Homo sapiens), sequence (P05771 2-671 limits assumed): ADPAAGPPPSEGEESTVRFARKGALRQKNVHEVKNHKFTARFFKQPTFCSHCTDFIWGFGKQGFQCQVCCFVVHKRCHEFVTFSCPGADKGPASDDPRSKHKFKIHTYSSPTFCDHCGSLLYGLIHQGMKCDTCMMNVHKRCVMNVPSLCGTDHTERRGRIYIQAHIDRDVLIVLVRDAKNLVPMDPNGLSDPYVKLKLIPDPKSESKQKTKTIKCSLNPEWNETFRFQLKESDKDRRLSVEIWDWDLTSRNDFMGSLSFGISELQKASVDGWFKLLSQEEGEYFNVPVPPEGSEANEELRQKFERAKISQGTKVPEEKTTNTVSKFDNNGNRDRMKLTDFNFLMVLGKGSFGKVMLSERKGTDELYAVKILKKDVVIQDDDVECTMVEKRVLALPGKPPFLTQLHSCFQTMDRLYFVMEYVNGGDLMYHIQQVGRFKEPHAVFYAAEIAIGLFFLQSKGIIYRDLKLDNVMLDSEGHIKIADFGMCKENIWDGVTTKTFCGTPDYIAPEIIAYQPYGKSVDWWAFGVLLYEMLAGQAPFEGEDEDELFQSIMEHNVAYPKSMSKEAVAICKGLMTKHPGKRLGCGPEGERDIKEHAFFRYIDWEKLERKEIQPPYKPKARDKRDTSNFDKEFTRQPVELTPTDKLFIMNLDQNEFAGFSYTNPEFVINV

## C[C@@H]1CCc2ncc(F)cc2[C@H]2CCCN2c2ccn3ncc(c3n2)C(=O)N1 [SELITRECTINIB]
[1]
  Activity: < 5%
MCF7
  inhibition: inactive
5637
  inhibition: inactive
MDA-MB-231
  inhibition: inactive
MDA-MB-453
  inhibition: inactive
MDA-MB-468
  inhibition: inactive
FaDu
  inhibition: inactive
Rec1
  inhibition: inactive
J82
  inhibition: inactive
CAMA-1
  inhibition: inactive
[2]
  inhibition: 14%
[3]
  AUC at 192 h: 2010 ng·h/mL
[4]
  residual activity: 91%
[5]
  residual activity: 99.5%
[6]
  residual activity: 90.5%
[7]
  residual activity: 118%
[8]
  residual activity: 98%
[9]
  residual activity: 95%
[10]
  residual activity: 115%
[11]
  residual activity: 104%
[12]
  residual activity: 103%
[13]
  residual activity: 0%
[14]
  residual activity: 102%
[15]
  residual activity: 128%
[16]
  residual activity: 85.5%
[17]
  residual activity: 108%
[18]
  residual activity: 110%
[19]
  residual activity: 104%
[20]
  residual activity: 96.5%
[21]
  residual activity: 112%
